# Measurements from the NIST ThermoML archive (doi:10.1021/je800248w).
# ± gives the expanded uncertainty stated by the source.
# Tests used:
# [1] = molar heat capacity at constant pressure; xn = mol fraction of the nth substance listed; settings: 101.3 kPa, Liquid, Small sample (50 mg) DSC, x1 = 1
# [2] = molar heat capacity at constant pressure; settings: 101.3 kPa, Liquid, Small sample (50 mg) DSC
Compound,molar heat capacity at constant pressure ([1]; 283.15 K),molar heat capacity at constant pressure ([1]; 293.15 K),molar heat capacity at constant pressure ([1]; 303.15 K),molar heat capacity at constant pressure ([1]; 313.15 K),molar heat capacity at constant pressure ([1]; 323.15 K),molar heat capacity at constant pressure ([1]; 333.15 K),molar heat capacity at constant pressure ([1]; 343.15 K),molar heat capacity at constant pressure ([2]; 283.15 K),molar heat capacity at constant pressure ([2]; 293.15 K),molar heat capacity at constant pressure ([2]; 303.15 K),molar heat capacity at constant pressure ([2]; 313.15 K),molar heat capacity at constant pressure ([2]; 323.15 K),molar heat capacity at constant pressure ([2]; 333.15 K),molar heat capacity at constant pressure ([2]; 343.15 K)
O [water] + CCn1cc[n+](C)c1.O=S(=O)([O-])C(F)(F)F,75 ± 6 J/K/mol,75 ± 6 J/K/mol,75 ± 6 J/K/mol,75 ± 6 J/K/mol,75 ± 6 J/K/mol,75 ± 6 J/K/mol,75 ± 6 J/K/mol,,,,,,,
O [water],,,,,,,,75 ± 6 J/K/mol,75 ± 6 J/K/mol,75 ± 6 J/K/mol,75 ± 6 J/K/mol,75 ± 6 J/K/mol,75 ± 6 J/K/mol,75 ± 6 J/K/mol
CCn1cc[n+](C)c1.O=C([O-])C(F)(F)F [1-ethyl-3-methylimidazolium trifluoroacetate],,,,,,,,308 ± 25 J/K/mol,313 ± 25 J/K/mol,320 ± 26 J/K/mol,324 ± 26 J/K/mol,328 ± 27 J/K/mol,332 ± 27 J/K/mol,337 ± 27 J/K/mol
O [water] + CCn1cc[n+](C)c1.O=C([O-])C(F)(F)F,75 ± 6 J/K/mol,75 ± 6 J/K/mol,75 ± 6 J/K/mol,75 ± 6 J/K/mol,75 ± 6 J/K/mol,75 ± 6 J/K/mol,75 ± 6 J/K/mol,,,,,,,
O [water] + CCOS(=O)(=O)[O-].CCn1cc[n+](C)c1,75 ± 6 J/K/mol,75 ± 6 J/K/mol,75 ± 6 J/K/mol,75 ± 6 J/K/mol,75 ± 6 J/K/mol,75 ± 6 J/K/mol,75 ± 6 J/K/mol,,,,,,,
CCOS(=O)(=O)[O-].CCn1cc[n+](C)c1 [1-ethyl-3-methylimidazolium ethyl sulfate],,,,,,,,365 ± 30 J/K/mol,371 ± 30 J/K/mol,380 ± 31 J/K/mol,386 ± 31 J/K/mol,392 ± 32 J/K/mol,397 ± 32 J/K/mol,403 ± 33 J/K/mol
CCn1cc[n+](C)c1.O=S(=O)([O-])C(F)(F)F [1-ethyl-3-methylimidazolium trifluoromethanesulfonate],,,,,,,,353 ± 29 J/K/mol,358 ± 29 J/K/mol,366 ± 30 J/K/mol,371 ± 30 J/K/mol,376 ± 31 J/K/mol,380 ± 31 J/K/mol,384 ± 31 J/K/mol
